Results on six molecules are retold here after US20250115578A1, “AROMATIC FUSED RING NAV1.8 INHIBITOR, AND USE THEREOF” (CHENGDU KANGHONG PHARMACEUTICAL CO., LTD., priority 2022, published 2025).

The target in one series is Human Nav1.8 ion channel (Homo sapiens (Human), UniProt Q9Y5Y9). Nature of the series: Manual patch clamp, Method 2 (HEK293 cells stably expressing human Nav1.8, resting state). Type of series: cell-based. The settings on record: Method 2, HEK293-hNav1.8, resting state, 1 μM TTX; read-out: IC50 inhibitory activity against hNav1.8. (In patch-clamp work, channel activity is measured electrically.)

A short description of series [1]: Stability assay for human liver microsomes in vitro. The series is classed as in vitro ADME. Particulars: 1 μM compound, 0.5 mg/mL liver microsomes, read-out: Human liver microsome stability T1/2. A general note: Liver microsomes are a subcellular fraction often used to study metabolism.
Another series has as its target hNav1.8 (Homo sapiens (Human), UniProt Q9Y5Y9). Nature of the series: Manual patch clamp, Method 1 (CHO cell line stably expressing hNav1.8). Particulars: for inhibition at 0.01 µM: 10 nM; for inhibition at 0.01 µM / inhibition at 0.1 µM: Method 1, CHO-hNav1.8, read-out: Inhibition rate of hNav1.8; for inhibition at 0.1 µM: 100 nM; for IC50: Method 1, CHO-hNav1.8, manual patch clamp, resting state, read-out: IC50 inhibitory activity against hNav1.8. The series is classed as cell-based.

Chain of hNav1.8 (Q9Y5Y9 whole entry): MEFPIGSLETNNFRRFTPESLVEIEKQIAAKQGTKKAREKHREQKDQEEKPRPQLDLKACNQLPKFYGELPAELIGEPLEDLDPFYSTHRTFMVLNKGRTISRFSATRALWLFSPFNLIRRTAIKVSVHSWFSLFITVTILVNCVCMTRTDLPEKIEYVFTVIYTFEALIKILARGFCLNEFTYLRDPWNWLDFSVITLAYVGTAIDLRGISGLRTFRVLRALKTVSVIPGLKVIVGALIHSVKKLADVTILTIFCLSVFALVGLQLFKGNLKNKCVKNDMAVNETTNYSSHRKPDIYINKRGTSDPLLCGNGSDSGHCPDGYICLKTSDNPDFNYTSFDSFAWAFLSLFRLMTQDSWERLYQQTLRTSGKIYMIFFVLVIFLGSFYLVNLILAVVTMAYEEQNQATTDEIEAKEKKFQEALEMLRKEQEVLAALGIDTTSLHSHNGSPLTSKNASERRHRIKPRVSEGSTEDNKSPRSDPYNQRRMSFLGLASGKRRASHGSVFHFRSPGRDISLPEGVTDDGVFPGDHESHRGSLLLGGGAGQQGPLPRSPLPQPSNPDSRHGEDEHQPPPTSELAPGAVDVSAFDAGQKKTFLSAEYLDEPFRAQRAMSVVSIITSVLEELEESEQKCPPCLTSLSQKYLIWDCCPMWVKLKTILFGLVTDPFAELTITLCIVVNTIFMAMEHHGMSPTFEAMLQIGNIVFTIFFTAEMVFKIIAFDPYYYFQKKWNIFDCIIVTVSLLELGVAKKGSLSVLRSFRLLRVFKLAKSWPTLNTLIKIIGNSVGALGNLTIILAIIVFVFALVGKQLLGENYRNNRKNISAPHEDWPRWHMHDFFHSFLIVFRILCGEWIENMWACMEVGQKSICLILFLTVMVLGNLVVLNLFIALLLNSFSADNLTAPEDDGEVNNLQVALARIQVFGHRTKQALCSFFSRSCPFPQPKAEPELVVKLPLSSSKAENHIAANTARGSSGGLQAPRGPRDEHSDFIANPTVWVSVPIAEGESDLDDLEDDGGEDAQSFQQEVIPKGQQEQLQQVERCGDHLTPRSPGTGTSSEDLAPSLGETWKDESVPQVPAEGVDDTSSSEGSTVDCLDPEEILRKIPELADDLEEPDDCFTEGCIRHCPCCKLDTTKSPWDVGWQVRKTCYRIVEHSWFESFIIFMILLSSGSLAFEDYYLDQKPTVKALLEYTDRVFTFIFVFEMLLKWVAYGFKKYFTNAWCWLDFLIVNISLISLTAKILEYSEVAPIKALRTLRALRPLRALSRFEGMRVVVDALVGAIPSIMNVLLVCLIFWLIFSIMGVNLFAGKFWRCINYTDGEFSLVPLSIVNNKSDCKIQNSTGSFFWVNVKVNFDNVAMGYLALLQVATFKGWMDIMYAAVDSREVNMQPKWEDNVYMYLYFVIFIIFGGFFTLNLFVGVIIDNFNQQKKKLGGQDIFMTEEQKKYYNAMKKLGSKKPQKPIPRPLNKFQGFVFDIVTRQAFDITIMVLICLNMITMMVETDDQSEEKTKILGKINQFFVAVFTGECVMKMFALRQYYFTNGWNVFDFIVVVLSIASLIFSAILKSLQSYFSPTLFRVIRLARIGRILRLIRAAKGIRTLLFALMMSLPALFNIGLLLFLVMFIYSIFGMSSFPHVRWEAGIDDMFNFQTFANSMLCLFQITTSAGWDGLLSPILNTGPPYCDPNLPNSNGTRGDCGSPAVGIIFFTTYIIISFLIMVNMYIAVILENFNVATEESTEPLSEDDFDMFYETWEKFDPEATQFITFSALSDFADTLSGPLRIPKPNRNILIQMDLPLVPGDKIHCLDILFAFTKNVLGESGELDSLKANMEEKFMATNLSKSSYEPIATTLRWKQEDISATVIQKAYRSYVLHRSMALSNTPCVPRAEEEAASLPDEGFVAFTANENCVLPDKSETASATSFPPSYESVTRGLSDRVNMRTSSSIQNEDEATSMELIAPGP

A word on the IC50: it is the midpoint of a concentration-inhibition curve. What is called inhibition is the share of the control response that was lost under treatment. In the case of `NC(=O)c1cc(NC(=O)c2nc3ccccc3nc2N2CCCC(F)(F)CC2)ccc1F` [Example 02, N-(3-carbamoyl-4-fluorophenyl)-3-(4,4-difluoroazepan-1-yl)quinoxaline-2-carboxamide], the IC50 at Human Nav1.8 ion channel was determined as 2.82 nM. The half-life at 1 µM in series [1] is 58.8 min. Also, on hNav1.8, the inhibition at 0.01 µM was determined as 66.1%, the inhibition at 0.1 µM amounted to 96.1% and the IC50 amounted to 5.3 nM.

For `NC(=O)c1cc(NC(=O)c2nc3ccccc3nc2N2CCCC(F)(F)CC2)ccn1` [Example 05, N-(2-carbamoylpyridin-4-yl)-3-(4,4-difluoroazepan-1-yl)quinoxaline-2-carboxamide], the IC50 on Human Nav1.8 ion channel was determined as 21.3 nM. Also, in series [1], the half-life at 1 µM was found to be 93.7 min. On hNav1.8, the inhibition at 0.01 µM is 46.7%, the inhibition at 0.1 µM amounted to 90.5% and the IC50 came out at 8.9 nM.

Regarding `NC(=O)c1cc(NC(=O)c2cc3ccccc3nc2N2CCCC(F)(F)CC2)ccn1` [Example 08, N-(2-carbamoylpyridin-4-yl)-2-(4,4-difluoroazepan-1-yl)quinoline-3-carboxamide], on Human Nav1.8 ion channel, the IC50 stood at 1.74 nM. Also, the half-life at 1 µM in series [1] came to 23 min. Also, on hNav1.8, the inhibition at 0.01 µM was 75.4%, the inhibition at 0.1 µM was found to be 96.6% and the concentration for half-maximal inhibition (IC50) amounted to 3.3 nM.

On to `NC(=O)c1cc(NC(=O)c2cc3cc(F)c(F)cc3nc2N2CCCC(F)(F)CC2)ccn1` [Example 10, N-(2-carbamoylpyridin-4-yl)-2-(4,4-difluoroazepan-1-yl)-6,7-difluoroquinoline-3-carboxamide], for which the IC50 at Human Nav1.8 ion channel turned out to be 0.46 nM. For the same molecule, in series [1], the half-life at 1 µM amounted to 92.7 min. In addition, at hNav1.8, the inhibition at 0.01 µM worked out at 95.5%, the inhibition at 0.1 µM stood at 99.1% and the IC50 stood at 0.784 nM.

Turning to `NS(=O)(=O)c1cc(NC(=O)c2cc3ccccc3nc2N2CCCC(F)(F)CC2)ccn1` [Example 14, 2-(4,4-difluoroazepan-1-yl)-N-(2-sulfamoylpyridine-4-yl) quinoline-3-carboxamide], on Human Nav1.8 ion channel, the IC50 stood at 0.725 nM. The half-life at 1 µM in series [1] was above 145 min. Besides, at hNav1.8, the inhibition at 0.01 µM came out at 98%, the inhibition at 0.1 µM stood at 99.6% and the IC50 stood at 0.34 nM.

In the case of `NS(=O)(=O)c1cccc(NC(=O)c2cc3cc(F)c(F)cc3nc2N2CCCC(F)(F)CC2)c1` [Example 16, 2-(4,4-difluoroazepan-1-yl)-6,7-difluoro-N-(3-sulfamoylphenyl) quinoline-3-carboxamide], at Human Nav1.8 ion channel, the IC50 came out at 0.071 nM. In addition, in series [1], the half-life at 1 µM is 41.3 min. Also, at hNav1.8, the inhibition at 0.01 µM amounted to 99.8%, the inhibition at 0.1 µM worked out at 100% and the IC50 is 0.084 nM.
